Assay results from paper PMC6458995, “MAP4K4 Inhibition Promotes Survival of Human Stem Cell-Derived Cardiomyocytes and Reduces Infarct Size In Vivo” (Cell Stem Cell, 2019).

Key:
Experiment in all cases: Dundee kinase panel
Type in all cases: biochemical
Conditions in all cases: for remaining activity at 1 µM: read-out: residual activity
MARK3 = biological target: T1, MARK3 (Homo sapiens, UniProt P27448)
T1 construct: lines 1-140) and Reaction Biology
Experimental: (§1) Compounds were screened at 1 μM. For key hits, pIC50 values were then determined by HTRF as above. […] Stability in mouse and human liver microsomes was determined by Cyprotex.

SmMLCK = biological target: T2, SmMLCK (Homo sapiens, UniProt Q15746)
T2 construct: lines 1-140) and Reaction Biology
T2 sequence (Q15746 923-1914): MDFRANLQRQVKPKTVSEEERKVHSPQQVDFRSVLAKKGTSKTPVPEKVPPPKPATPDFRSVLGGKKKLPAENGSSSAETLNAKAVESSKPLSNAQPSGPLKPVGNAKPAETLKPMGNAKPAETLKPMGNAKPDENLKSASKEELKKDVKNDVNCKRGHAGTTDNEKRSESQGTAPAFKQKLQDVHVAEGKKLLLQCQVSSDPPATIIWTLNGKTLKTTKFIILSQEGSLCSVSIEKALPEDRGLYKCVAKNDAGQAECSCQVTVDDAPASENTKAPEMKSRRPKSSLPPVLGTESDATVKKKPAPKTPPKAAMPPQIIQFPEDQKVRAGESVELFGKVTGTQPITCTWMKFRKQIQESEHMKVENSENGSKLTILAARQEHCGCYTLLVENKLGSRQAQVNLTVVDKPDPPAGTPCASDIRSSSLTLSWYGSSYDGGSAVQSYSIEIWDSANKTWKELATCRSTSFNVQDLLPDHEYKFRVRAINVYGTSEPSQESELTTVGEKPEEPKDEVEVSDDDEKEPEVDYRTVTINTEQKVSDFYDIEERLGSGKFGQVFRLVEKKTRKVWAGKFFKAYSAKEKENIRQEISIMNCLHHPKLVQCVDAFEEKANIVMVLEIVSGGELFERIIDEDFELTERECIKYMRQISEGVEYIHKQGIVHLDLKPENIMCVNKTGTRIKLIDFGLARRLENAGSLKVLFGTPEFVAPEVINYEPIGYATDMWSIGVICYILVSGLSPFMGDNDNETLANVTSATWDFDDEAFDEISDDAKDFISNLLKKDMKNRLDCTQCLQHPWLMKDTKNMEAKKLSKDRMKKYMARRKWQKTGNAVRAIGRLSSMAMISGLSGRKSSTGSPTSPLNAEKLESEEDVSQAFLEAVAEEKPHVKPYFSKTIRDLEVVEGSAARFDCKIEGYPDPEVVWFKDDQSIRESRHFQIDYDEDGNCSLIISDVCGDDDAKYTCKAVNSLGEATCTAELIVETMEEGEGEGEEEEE
Experimental: as §1

MST4 = biological target: T3, MST4 (Homo sapiens, UniProt Q9P289)
T3 construct: lines 1-140) and Reaction Biology
T3 sequence (Q9P289 whole entry): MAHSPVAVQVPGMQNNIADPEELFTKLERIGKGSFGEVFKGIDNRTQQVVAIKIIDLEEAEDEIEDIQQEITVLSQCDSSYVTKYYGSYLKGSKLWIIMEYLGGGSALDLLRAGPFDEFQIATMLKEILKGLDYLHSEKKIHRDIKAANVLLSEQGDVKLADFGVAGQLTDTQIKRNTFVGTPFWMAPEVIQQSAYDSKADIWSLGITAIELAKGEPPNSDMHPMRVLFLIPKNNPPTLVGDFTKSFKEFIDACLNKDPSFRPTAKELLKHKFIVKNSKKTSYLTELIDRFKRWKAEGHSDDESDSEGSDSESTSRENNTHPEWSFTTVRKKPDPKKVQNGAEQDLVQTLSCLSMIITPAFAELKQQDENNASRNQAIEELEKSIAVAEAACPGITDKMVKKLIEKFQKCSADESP
Experimental: as §1

DYRK3 = biological target: T4, DYRK3 (Homo sapiens, UniProt O43781)
T4 construct: lines 1-140) and Reaction Biology
T4 sequence (O43781 1-588): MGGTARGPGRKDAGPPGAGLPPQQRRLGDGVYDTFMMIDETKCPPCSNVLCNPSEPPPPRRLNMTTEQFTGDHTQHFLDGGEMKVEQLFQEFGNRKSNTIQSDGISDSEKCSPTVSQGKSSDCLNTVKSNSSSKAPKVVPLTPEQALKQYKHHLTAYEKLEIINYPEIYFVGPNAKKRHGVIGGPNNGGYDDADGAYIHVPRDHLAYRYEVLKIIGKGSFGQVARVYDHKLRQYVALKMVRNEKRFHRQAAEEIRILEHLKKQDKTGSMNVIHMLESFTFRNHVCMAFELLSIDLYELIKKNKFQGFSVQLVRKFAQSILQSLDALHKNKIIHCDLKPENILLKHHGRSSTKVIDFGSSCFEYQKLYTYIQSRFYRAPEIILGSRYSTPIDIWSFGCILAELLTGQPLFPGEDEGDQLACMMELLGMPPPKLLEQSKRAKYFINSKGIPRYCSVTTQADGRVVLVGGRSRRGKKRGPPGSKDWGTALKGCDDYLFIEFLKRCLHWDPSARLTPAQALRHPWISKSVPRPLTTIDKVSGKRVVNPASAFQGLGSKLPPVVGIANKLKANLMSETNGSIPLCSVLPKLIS
Experimental: as §1

MARK4 = biological target: T5, MARK4 (Homo sapiens, UniProt Q96L34)
T5 construct: lines 1-140) and Reaction Biology
T5 sequence (Q96L34 1-752): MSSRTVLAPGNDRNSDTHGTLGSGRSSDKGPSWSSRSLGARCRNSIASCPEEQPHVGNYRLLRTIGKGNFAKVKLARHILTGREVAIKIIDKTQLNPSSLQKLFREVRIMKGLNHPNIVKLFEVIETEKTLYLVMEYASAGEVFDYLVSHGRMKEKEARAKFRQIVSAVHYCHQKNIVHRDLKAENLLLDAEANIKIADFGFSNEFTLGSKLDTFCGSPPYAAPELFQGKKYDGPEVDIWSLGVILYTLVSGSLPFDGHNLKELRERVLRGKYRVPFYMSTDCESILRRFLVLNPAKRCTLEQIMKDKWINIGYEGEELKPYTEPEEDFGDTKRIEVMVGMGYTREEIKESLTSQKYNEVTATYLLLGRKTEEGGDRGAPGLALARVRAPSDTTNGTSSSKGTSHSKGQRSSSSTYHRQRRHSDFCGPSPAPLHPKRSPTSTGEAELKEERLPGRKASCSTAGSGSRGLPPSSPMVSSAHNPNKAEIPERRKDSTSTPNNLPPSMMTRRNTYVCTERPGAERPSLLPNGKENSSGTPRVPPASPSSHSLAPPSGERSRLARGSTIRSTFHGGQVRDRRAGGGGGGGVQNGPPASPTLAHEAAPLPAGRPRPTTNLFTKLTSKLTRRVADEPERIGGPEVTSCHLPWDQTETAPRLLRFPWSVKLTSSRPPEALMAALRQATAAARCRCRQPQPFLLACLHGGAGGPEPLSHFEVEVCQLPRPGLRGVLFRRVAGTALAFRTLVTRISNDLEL
Experimental: as §1

PRAK = biological target: T6, PRAK (Homo sapiens, UniProt Q8IW41)
T6 construct: lines 1-140) and Reaction Biology
T6 sequence (Q8IW41 1-473): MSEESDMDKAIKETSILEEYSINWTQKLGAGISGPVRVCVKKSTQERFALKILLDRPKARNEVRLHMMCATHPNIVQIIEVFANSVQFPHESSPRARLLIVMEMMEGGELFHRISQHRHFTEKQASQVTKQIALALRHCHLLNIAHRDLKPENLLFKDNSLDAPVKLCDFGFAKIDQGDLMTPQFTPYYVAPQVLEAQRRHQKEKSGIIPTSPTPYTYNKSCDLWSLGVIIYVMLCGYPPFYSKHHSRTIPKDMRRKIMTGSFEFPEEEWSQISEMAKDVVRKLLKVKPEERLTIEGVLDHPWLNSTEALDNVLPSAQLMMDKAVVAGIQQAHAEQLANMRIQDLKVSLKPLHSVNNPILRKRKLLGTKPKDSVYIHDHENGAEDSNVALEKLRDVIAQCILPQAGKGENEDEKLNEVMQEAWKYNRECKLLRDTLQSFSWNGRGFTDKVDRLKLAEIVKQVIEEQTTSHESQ
Experimental: as §1

MKK2 = biological target: T7, MKK2 (Homo sapiens, UniProt P36507)
T7 construct: lines 1-140) and Reaction Biology
T7 sequence (P36507 whole entry): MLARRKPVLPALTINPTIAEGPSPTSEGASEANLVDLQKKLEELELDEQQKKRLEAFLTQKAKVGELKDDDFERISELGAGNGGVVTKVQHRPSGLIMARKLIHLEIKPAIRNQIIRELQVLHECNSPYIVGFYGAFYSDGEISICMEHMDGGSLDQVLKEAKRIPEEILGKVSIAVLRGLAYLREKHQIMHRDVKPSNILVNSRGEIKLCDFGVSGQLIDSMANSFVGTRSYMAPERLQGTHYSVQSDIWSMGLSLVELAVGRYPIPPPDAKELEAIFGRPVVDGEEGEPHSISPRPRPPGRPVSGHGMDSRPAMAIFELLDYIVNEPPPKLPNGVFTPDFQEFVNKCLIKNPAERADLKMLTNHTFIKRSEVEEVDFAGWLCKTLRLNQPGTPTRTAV
Experimental: as §1

Aurora A = biological target: T8, Aurora A (Homo sapiens, UniProt O14965)
T8 construct: lines 1-140) and Reaction Biology
T8 sequence (O14965 1-403): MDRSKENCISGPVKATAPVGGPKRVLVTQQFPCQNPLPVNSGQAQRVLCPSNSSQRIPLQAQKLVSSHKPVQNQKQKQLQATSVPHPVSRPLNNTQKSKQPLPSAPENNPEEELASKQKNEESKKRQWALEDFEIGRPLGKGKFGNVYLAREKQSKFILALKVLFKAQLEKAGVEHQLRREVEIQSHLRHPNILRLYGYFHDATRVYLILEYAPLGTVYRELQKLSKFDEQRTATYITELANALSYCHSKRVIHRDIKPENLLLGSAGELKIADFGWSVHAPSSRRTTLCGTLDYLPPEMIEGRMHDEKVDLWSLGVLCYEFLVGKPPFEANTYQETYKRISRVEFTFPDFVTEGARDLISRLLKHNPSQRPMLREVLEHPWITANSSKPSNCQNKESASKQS
Experimental: as §1

T1 sequence (P27448 whole entry): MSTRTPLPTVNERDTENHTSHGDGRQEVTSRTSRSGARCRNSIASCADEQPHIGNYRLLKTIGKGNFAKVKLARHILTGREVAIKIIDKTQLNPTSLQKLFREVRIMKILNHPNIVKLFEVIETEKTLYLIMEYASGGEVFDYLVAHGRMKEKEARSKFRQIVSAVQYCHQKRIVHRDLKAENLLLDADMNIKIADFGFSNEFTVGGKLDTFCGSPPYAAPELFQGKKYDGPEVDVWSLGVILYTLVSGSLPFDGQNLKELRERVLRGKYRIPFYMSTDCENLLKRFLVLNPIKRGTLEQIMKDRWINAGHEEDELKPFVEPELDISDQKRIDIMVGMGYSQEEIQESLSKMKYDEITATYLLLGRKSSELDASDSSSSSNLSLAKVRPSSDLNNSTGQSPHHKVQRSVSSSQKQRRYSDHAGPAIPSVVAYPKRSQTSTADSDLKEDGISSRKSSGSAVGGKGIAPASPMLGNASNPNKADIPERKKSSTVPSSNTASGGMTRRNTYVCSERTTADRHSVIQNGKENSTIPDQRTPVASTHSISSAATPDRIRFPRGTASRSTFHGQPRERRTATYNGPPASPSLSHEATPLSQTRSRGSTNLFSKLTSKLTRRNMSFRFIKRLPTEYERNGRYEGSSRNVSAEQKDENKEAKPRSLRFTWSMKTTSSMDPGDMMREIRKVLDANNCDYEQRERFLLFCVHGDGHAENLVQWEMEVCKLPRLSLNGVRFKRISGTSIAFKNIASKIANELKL

| Structure (SMILES) | remaining activity at 1 µM (MARK3) [%] | remaining activity at 1 µM (SmMLCK) [%] | remaining activity at 1 µM (MST4) [%] | remaining activity at 1 µM (DYRK3) [%] | remaining activity at 1 µM (MARK4) [%] | remaining activity at 1 µM (PRAK) [%] | remaining activity at 1 µM (MKK2) [%] | remaining activity at 1 µM (Aurora A) [%] | residual activity (MARK3; 1 μM) [%] | residual activity (SmMLCK; 1 μM) [%] | residual activity (MST4; 1 μM) [%] | residual activity (DYRK3; 1 μM) [%] | residual activity (MARK4; 1 μM) [%] | residual activity (PRAK; 1 μM) [%] | residual activity (MKK2; 1 μM) [%] | residual activity (Aurora A; 1 μM) [%] |
| --- | --- | --- | --- | --- | --- | --- | --- | --- | --- | --- | --- | --- | --- | --- | --- | --- |
| COCCOc1ccc(-c2cn(-c3ccccc3)c3nc[nH]c(=O)c23)cc1 [DMX-5804, 5-[4-(2-methoxy-ethoxy)-phenyl]-7-phenyl-3,7-dihydro-pyrrolo[2,3-d]pyrimidin-4-one] | 88 | 89 | 102 | 128 | 99 | 92 | 98 | 72 |  |  |  |  |  |  |  |  |
| Oc1ncnc2c1c(-c1ccccc1)cn2-c1ccccc1 [F1386-0303, 5,7-diphenyl-7H-pyrrolo[2,3-d]pyrimidin-4-ol] | 111 | 76 | 109 | 101 | 96 | 113 | 102 | 111 |  |  |  |  |  |  |  |  |
| Nc1ncc(C(=O)NC2CN(C(=O)C3CC3)C2)c2ccc(-c3cccc(F)c3)nc12 [GNE-495] |  |  |  |  |  |  |  |  | 46 | 68 | 117 | 83 | 51 | 91 | 75 | 73 |
| O=C1Nc2ccc(I)cc2/C1=C/c1cc(Br)c(O)c(Br)c1 [GW5074] | 72 | 40 | 89 | 14 | 50 | 93 | 79 | 79 |  |  |  |  |  |  |  |  |
| O=C1Cc2c([nH]c3ccc(Br)cc23)-c2ccccc2N1 [Kenpaullone] | 62 | 97 | 74 | 72 | 39 | 95 | 91 | 96 |  |  |  |  |  |  |  |  |
